The source of these data is patent publication US20150344457A1, “METHODS OF INHIBITING PRMT5” (EPIZYME, INC., priority 2012, published 2015).

Each structure is given as a SMILES string. Bounds are passed on as bounds.

Broadly, the IC50 is the midpoint of a concentration-inhibition curve.

For one assay, the target named is T1, PRMT5/MEP50 (Homo sapiens, UniProt O14744).
T1 construct: Expressed full-length human Flag-PRMT5/6His-MeP50 protein complex was purified; made in house; host or cells: Spodoptera frugiperda (SF9) insect cells, baculovirus (pDEST8)
T1 sequence (O14744 with tags, fused parts or gaps): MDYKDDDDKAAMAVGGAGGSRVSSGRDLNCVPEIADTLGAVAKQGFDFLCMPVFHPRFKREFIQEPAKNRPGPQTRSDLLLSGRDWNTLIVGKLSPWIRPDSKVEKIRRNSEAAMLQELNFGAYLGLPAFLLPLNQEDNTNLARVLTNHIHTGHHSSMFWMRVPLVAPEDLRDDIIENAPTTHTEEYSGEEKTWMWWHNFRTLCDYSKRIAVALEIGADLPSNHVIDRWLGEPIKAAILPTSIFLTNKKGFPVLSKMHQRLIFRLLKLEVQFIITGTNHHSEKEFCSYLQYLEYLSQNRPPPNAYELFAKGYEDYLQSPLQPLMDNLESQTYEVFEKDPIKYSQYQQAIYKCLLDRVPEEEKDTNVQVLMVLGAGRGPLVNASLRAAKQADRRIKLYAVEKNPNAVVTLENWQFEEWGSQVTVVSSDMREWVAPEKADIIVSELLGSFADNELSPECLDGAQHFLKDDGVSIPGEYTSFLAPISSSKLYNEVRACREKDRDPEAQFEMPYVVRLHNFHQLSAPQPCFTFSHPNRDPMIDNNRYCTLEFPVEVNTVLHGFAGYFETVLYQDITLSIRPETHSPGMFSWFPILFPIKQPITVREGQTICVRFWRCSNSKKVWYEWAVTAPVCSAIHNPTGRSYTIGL
T1 sequence (Q9BQA1 with tags, fused parts or gaps partner limits assumed): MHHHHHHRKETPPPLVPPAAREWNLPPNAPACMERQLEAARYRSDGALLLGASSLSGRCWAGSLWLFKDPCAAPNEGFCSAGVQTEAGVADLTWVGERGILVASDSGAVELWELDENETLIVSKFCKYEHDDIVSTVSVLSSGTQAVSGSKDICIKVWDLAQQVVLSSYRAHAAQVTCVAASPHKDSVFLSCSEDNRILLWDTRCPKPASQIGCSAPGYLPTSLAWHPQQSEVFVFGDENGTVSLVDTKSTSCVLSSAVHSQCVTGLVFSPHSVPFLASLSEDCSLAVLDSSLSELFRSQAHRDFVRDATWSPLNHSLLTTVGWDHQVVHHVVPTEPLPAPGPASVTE
Nature of the assay: PRMT5 Biochemical Assay (PRMT5/MEP50 enzyme assay on peptide substrate, 3H-SAM Flashplate). To be noted: PRMT5 biochemical assay, Table C-2; read-out: Biochemical IC50. The text has this: S-adenosylmethionine (SAM), S-adenosylhomocysteine (SAH), bicine, KCl, Tween20, dimethylsulfoxide (DMSO), bovine skin gelatin (BSG), and Tris(2-carboxyethyl)phosphine hydrochloride solution (TCEP) were purchased from Sigma-Aldrich at the highest level of purity possible. ^3H-SAM was purchase from American Radiolabeled Chemicals with a specific activity of 80 Ci/mmol 384-well streptavidin Flashplates were purchased from PerkinElmer.
Peptide representative of human histone H4 residues 1-15 was synthesized with a C-terminal linker-affinity tag motif and a C-terminal amide cap by 21st Century Biochemicals. […] The sequence was Ac-[…][K-Biot]-amide (SEQ ID NO.:3).
Full-length human MEP50 (NM_024102) clone was amplified from a human testis cDNA library incorporating a 5′ sequence encoding a 6-histidine tag (MHHHHHH) (SEQ ID NO.:5) fused directly to Arg 2 of MEP50. The amplified genes were sublconed into pENTR/D/TEV (Life Technologies) and subsequently transferred by Gateway™ attL×attR recombination to pDEST8 baculvirus expression vector (Life Technologies).
Recombinant baculovirus and Baculovirus-Infected Insect Cells (BIIC) were generated according to Bac-to-Bac kit instructions (Life Technologies) and Wasilko, 2006, respectively. Protein over-expression was accomplished by infecting exponentially growing Spodoptera frugiperda (SF9) cell culture at 1.2×10^6 cell/ml with a 5000 fold dilution of BIIC stock. Infections were carried out at 27° C. for 72 hours, harvested by centrifugation, and stored at −80° C. for purification.
Flag-PRMT5/6His-MeP50 was eluted with 300 mM Imidazole in the same buffer. […] Reference: Wasilko, D. J. and S. E. Lee: “TIPS: titerless infected-cells preservation and scale-up” Bioprocess J., 5 (2006), pp. 29-32.
General Procedure for PRMT5/MEP50 Enzyme Assays on Peptide Substrates.
The assays were all performed in a buffer consisting of 20 mM Bicine (pH=7.6), 1 mM TCEP, 0.005% BSG, and 0.002% Tween20, prepared on the day of use. Compounds in 100% DMSO (1 ul) were spotted into a polypropylene 384-well V-bottom plates (Greiner) using a Platemate Plus outfitted with a 384-channel head (Thermo Scientific). DMSO (1 ul) was added to Columns 11, 12, 23, 24, rows A-H for the maximum signal control and 1 ul of SAH, a known product and inhibitor of PRMT5/MEP50, was added to columns 11, 12, 23, 24, rows I-P for the minimum signal control. A cocktail (40 ul) containing the PRMT5/MEP50 enzyme and the peptide was added by Multidrop Combi (Thermo-Fisher). The compounds were allowed to incubate with PRMT5/MEP50 for 30 min at 25 degrees Celsius, then a cocktail (10 ul) containing ^3H-SAM was added to initiate the reaction (final volume=51 ul). The final concentrations of the components were as follows: PRMT5/MEP50 was 4 nM, ^3H-SAM was 75 nM, peptide was 40 nM, SAH in the minimum signal control wells was 100 uM, and the DMSO concentration was 1%. The assays were stopped by the addition of non-radioactive SAM (10 ul) to a final concentration of 600 uM, which dilutes the ^3H-SAM to a level where its incorporation into the peptide substrate is no longer detectable. 50 ul of the reaction in the 384-well polypropylene plate was then transferred to a 384-well Flashplate and the biotinylated peptides were allowed to bind to the streptavidin surface for at least 1 hour before being washed three times with 0.1% Tween20 in a Biotek ELx405 plate washer. The plates were then read in a PerkinElmer TopCount plate reader to measure the quantity of ^3H-labeled peptide bound to the Flashplate surface, measured as disintegrations per minute (dpm) or alternatively, referred to as counts per minute (cpm).
where dpm=disintegrations per minute, cmpd=signal in assay well, and min and max are the respective minimum and maximum signal controls.
where top and bottom are the normally allowed to float, but may be fixed at 100 or 0 respectively in a 3-parameter fit.
On to `O=C1CN(c2cccc(N3CCOCC3)c2)CCN1CC(O)CN1CCc2ccccc2C1` (stereo not shown) [Compound C12], for which the concentration for half-maximal inhibition (IC50) was below 0.1 µM.

As to `O=C1Cc2ccccc2N1CC(O)CN1CCc2ccccc2C1` (stereo not shown) [Compound C1], the half-maximal inhibitory concentration (IC50) fell in the range of 0.101 to 1 µM.

`O=C1CN(c2ccc(CO)cc2)CCN1CC(O)CN1CCc2ccccc2C1` (stereo not shown) [Compound C20]: the 50% inhibitory concentration (IC50) lay within 0.101 to 1 µM.

On to `O=c1cccc(CC(O)CN2CCc3ccccc3C2)[nH]1` (stereo not shown) [Compound C2], for which the half-maximal inhibitory concentration (IC50) is 10 to 50 µM.

Consider `CN1CCN(CC(O)CN2CCc3ccccc3C2)C(=O)C1` (stereo not shown) [Compound C27], for which the half-maximal inhibitory concentration (IC50) was above 50 µM.

Turning to `CC(=O)N1CCN(CC(O)CN2CCc3ccccc3C2)C(=O)C1` (stereo not shown) [Compound C21], the half-maximal inhibitory concentration (IC50) was 1 to 10 µM.

The same assay, now with this note: Table A-2; PRMT5/MEP50 4 nM, 3H-SAM 75 nM, peptide 40 nM; read-out: Biochemical IC50.
With `O=C(COc1cccc2c1CCCN2)NCC(O)CN1CCc2ccccc2C1` (stereo not shown) [Compound A150], the half-maximal inhibitory concentration (IC50) is 0.101 to 1 µM.

`O=C(Cc1ccncc1)NCC(O)CN1CCc2ccccc2C1` (stereo not shown) [Compound A51]: the IC50 lay in the range of 10 to 50 µM.

Turning to `NS(=O)(=O)c1ccc(OCC(=O)NCC(O)CN2CCc3ccccc3C2)cc1` (stereo not shown) [Compound A52], the IC50 fell in the range of 1 to 10 µM.

With `CC(C)(C)OC(=O)Nc1ccccc1OCC(=O)NCC(O)CN1CCc2ccccc2C1` (stereo not shown) [Compound A141], the IC50 lay within 1 to 10 µM.

On to `O=C(COCc1cccnc1)NCC(O)CN1CCc2ccccc2C1` (stereo not shown) [Compound A152], for which the IC50 was 1 to 10 µM.

In the case of `O=C(COc1cccc2c1CCCN2Cc1ccccc1)NCC(O)CN1CCc2ccccc2C1` (stereo not shown) [Compound A4], the IC50 was below 0.1 µM.

As to `CS(=O)(=O)Nc1ncccc1OCC(=O)NCC(O)CN1CCc2ccccc2C1` (stereo not shown) [Compound A139], the 50% inhibitory concentration (IC50) is above 10 µM.

Consider `CN1CCCc2c(OCC(=O)NCC(O)CN3CCc4ccccc4C3)cccc21` (stereo not shown) [Compound A151], for which the IC50 is 0.101 to 1 µM.

On to `O=C(COc1ccccc1-c1c[nH]cn1)NCC(O)CN1CCc2ccccc2C1` (stereo not shown) [Compound A115], for which the IC50 lay within 10 to 50 µM.

Regarding `CN(CC(O)CN1CCc2ccccc2C1)C(=O)COc1ccccc1` (stereo not shown) [Compound A5], the IC50 fell in the range of 10 to 50 µM.

For `CN(CC(O)CN1CCc2ccccc2C1)C(=O)CCc1ccccc1` (stereo not shown) [Compound A3], the 50% inhibitory concentration (IC50) lay within 1 to 10 µM.

Consider `O=C(COC1CCOCC1)NCC(O)CN1CCc2ccccc2C1` (stereo not shown) [Compound A41], for which the IC50 was in the range of 1 to 10 µM.

The same assay, now with this note: Table B-2; PRMT5/MEP50 4 nM, 3H-SAM 75 nM, peptide 40 nM; read-out: Biochemical IC50.
Turning to `O=C(NCC(O)CN1CCc2ccccc2C1)c1cccc(CN2CCNCC2)c1` (stereo not shown) [Compound B29.], the IC50 is below 0.1 µM.

On to `NC(=O)c1cccc(C(=O)NCC(O)CN2CCc3ccccc3C2)c1` (stereo not shown) [Compound B25.], for which the IC50 fell in the range of 0.101 to 1 µM.

Consider `CN1CCC(c2cccc(C(=O)NCC(O)CN3CCc4ccccc4C3)c2)C1` (stereo not shown) [Compound B38.], for which the IC50 is below 0.1 µM.

In the case of `O=C(NCC(O)CN1CCc2ccccc2C1)c1ccccc1-c1ccccn1` (stereo not shown) [Compound B12.], the 50% inhibitory concentration (IC50) was 0.101 to 1 µM.

On to `O=C(NCC(O)CN1CCc2ccccc2C1)c1cc(NC2CCOCC2)ccc1F` (stereo not shown) [Compound B57.], for which the IC50 is 0.101 to 1 µM.

Consider `O=C(NCC(O)CN1CCc2ccccc2C1)c1cccc(-c2cc[nH]n2)c1` (stereo not shown) [Compound B10.], for which the half-maximal inhibitory concentration (IC50) is below 0.1 µM.

As for `CS(=O)(=O)Nc1cccc(C(=O)NCC(O)CN2CCc3ccccc3C2)c1` (stereo not shown) [Compound B24.], the 50% inhibitory concentration (IC50) was below 0.1 µM.

As for `CCN(c1cccc(C(=O)NCC(O)CN2CCc3ccccc3C2)c1)C1CCOCC1` (stereo not shown) [Compound B47.], the IC50 lay in the range of 0.101 to 1 µM.

For `O=C(NCC(O)CN1CCc2ccccc2C1)c1cccc(CN2CCOCC2)c1` (stereo not shown) [Compound B51.], the concentration for half-maximal inhibition (IC50) fell in the range of 0.101 to 1 µM.

As to `CCN(c1cccc(C(=O)NCC(O)CN2CCc3ccccc3C2)c1C)C1CCOCC1` (stereo not shown) [Compound B41.], the IC50 was below 0.1 µM.

Take `O=C(NC[C@@H](O)CN1CCc2ccccc2C1)c1cccc(NC2CCOCC2)c1` [Compound B43.]: the IC50 was in the range of 0.101 to 1 µM.

For `NC(=O)c1ccc(C(=O)NCC(O)CN2CCc3ccccc3C2)cc1` (stereo not shown) [Compound B22.], the IC50 fell in the range of 0.101 to 1 µM.

Consider `O=C(NCC(O)CN1CCc2ccccc2C1)c1cccc(OC2CCOCC2)c1` (stereo not shown) [Compound B48.], for which the half-inhibitory concentration (IC50) lay within 0.101 to 1 µM.

Still in this assay, the particulars now being: Table D-2; read-out: Biochemical IC50.
For the compound `OC(COCc1ccc(Cl)cc1Cl)CN1CCc2ccccc2C1` (stereo not shown) [Compound D281], the IC50 was in the range of 1 to 10 µM.

With `CN(C(=O)c1cnco1)c1cccc(OCC(O)CN2CCc3ccccc3C2)c1` (stereo not shown) [Compound D196], the half-maximal inhibitory concentration (IC50) was in the range of 1 to 10 µM.

For `OC(COCc1cc(-c2ccc(Cl)cc2)no1)CN1CCc2ccccc2C1` (stereo not shown) [Compound D11], the IC50 is 0.101 to 1 µM.

Consider `O=C(c1cncc(-c2cccc(OCC(O)CN3CCc4ccccc4C3)c2)c1)N1CCCC1` (stereo not shown) [Compound D181], for which the IC50 is 1 to 10 µM.

On to `O=C(Nc1cc[nH]n1)c1cccc(OCC(O)CN2CCc3ccccc3C2)c1` (stereo not shown) [Compound D274], for which the IC50 lay in the range of 1 to 10 µM.

`OC(COc1cccc(-c2cncnc2)c1)CN1CCc2ccccc2C1` (stereo not shown) [Compound D140]: the IC50 was in the range of 1 to 10 µM.

In the case of `Cn1cnc2ccc(-c3cccc(OCC(O)CN4CCc5ccccc5C4COc4ccccc4)c3)cc21` (stereo not shown) [Compound D178], the IC50 is above 40 µM.

In the case of `CN(C(=O)c1cccnc1)c1cccc(OCC(O)CN2CCc3ccccc3C2)c1` (stereo not shown) [Compound D204], the IC50 fell in the range of 1 to 10 µM.

As to `OC(COCc1ccc(CN2CCOCC2)cc1)CN1CCc2ccccc2C1` (stereo not shown) [Compound D46], the concentration for half-maximal inhibition (IC50) lay within 1 to 10 µM.

Turning to `OC(COc1cccc(-c2ccc(F)cc2)c1)CN1CCc2ccccc2C1` (stereo not shown) [Compound D77], the 50% inhibitory concentration (IC50) was 1 to 10 µM.

With `Oc1ccc(-c2cccc(OCC(O)CN3CCc4ccccc4C3)c2)cc1F` (stereo not shown) [Compound D70], the IC50 was 1 to 10 µM.

On to `Cn1cnc2ccc(-c3cccc(OCC(O)CN4CCc5ccccc5C4(C)C)c3)cc21` (stereo not shown) [Compound D211], for which the 50% inhibitory concentration (IC50) lay in the range of 1 to 10 µM.

Consider `COc1cccc2c1CN(CC(O)COc1cccc(-c3ccc4ncn(C)c4c3)c1)CC2` (stereo not shown) [Compound D100], for which the IC50 lay within 1 to 10 µM.

With `OC(COCc1ccncc1)CN1CCc2ccccc2C1` (stereo not shown) [Compound D284], the IC50 lay in the range of 10 to 40 µM.

Consider `Cn1cnc2ccc(-c3cccc(OCC(O)CN4CCc5ccc(Cl)cc5C4)c3)cc21` (stereo not shown) [Compound D214], for which the IC50 fell in the range of 1 to 10 µM.

Consider `O=C(Nc1cccc(OCC(O)CN2CCc3ccccc3C2)c1)c1cocn1` (stereo not shown) [Compound D159], for which the IC50 is 1 to 10 µM.

As for `CN(C)S(=O)(=O)c1cccc(-c2cccc(OCC(O)CN3CCc4ccccc4C3)c2)c1` (stereo not shown) [Compound D61], the IC50 is above 40 µM.

Consider `OC(COc1cccc(-c2cncc(F)c2)c1)CN1CCc2ccccc2C1` (stereo not shown) [Compound D76], for which the IC50 was in the range of 1 to 10 µM.

Still in this assay, the particulars now being: Table E-2; read-out: Biochemical IC50.
Turning to `CN(C)S(=O)(=O)c1ccccc1OCC(=O)NCC(O)CN1Cc2ccccc2C1` (stereo not shown) [Compound E15.], the IC50 is below 0.1 µM.

`C[C@H](Oc1cccc2cccnc12)C(=O)NC[C@@H](O)CN1Cc2ccccc2C1` [Compound E6.]: the IC50 was above 10 µM.

`COc1ccc(Cn2cnc3ccc(-c4ccc(OCC(O)CN5Cc6ccccc6C5)cc4)cc32)cc1` (stereo not shown) [Compound E18.]: the IC50 was in the range of 1 to 10 µM.

`O=C(COc1ccccc1-c1cc[nH]n1)NCC(O)CN1Cc2ccccc2C1` (stereo not shown) [Compound E7.]: the IC50 is 0.101 to 1 µM.

In the case of `O=C(COc1cccc2cccnc12)NC[C@H](O)CN1Cc2ccccc2C1` [Compound E4.], the half-maximal inhibitory concentration (IC50) is below 0.1 µM.

As to `O=C(NCC(O)CN1Cc2ccccc2C1)c1cccc(-c2ccccn2)c1` (stereo not shown) [Compound E13.], the half-inhibitory concentration (IC50) fell in the range of 0.101 to 1 µM.
